Results on three molecules are retold here after publication PMC4913735, “Non‐glycosidic compounds can stimulate both human and mouse iNKT cells” (European Journal of Immunology, 2016).

The subject of one series is murine iNKT cells. Kind of series: In vivo iNKT‐cell activation in mice: serum IFN‐γ/IL‐4 ELISA and splenic DC maturation. Details: species or system C57BL/6 mice. As to conditions: for DC maturation (CD40 on CD11c+ cells) in iNKT cell deficient mice: CD1d−/− mice. The protocol:
Figure 2 Enhanced in vivo potency of ThrCer 6. (A) Equilibrium binding and kinetics measurements of a soluble mouse iNKT‐cell TCR were assessed for mCD1d molecules refolded with α‐GalCer, ThrCer 6 and ThrCer 7. K d values (μM) were calculated from equilibrium binding. (B–D) Mice were immunized with 1 μg lipids i.v. and (B) IL‐4 and (C) IFN‐γ were detected by ELISA in blood sera at either 2 or 18 h, respectively. (D) At 18 h, immunized mice were sacrificed and splenocytes stained with anti‐CD11c and anti‐CD86 antibodies to determine the extent of maturation by the expression of CD86 on gated DCs (CD11c^+) using flow cytometry. (E and F) Mice were immunized i.v. with titrating doses of α‐GalCer, ThrCer, ThrCer 6, and ThrCer 7 and (E) IFN‐γ and (F) IL‐4 were detected in blood sera at 2, 12, and 18 h by ELISA. Median fluorescent intensity = MFI. (B–F) Data are shown as mean ± SEM (n = 3/group) and are representative of two independent experiments (A), three experiments (B–D), or a single experiment (E and F). *p < 0.05; Student's t‐test.
Concentrations of murine IFN‐γ and IL‐4 in serum were determined using standard sandwich ELISAs using the R4‐6A2 capture Ab for IFN‐γ (eBioscience), and the ID11 capture Ab for IL‐4 (Endogen). Biotinylated XMG1.2 (eBioscience) was used as the detection Ab for IFN‐γ and biotinylated BVD6‐24G2 (eBioscience) was used as the detection Ab for IL‐4. Human IFN‐γ in supernatants was determined using the capture Ab NIB42 (BD Pharmingen) and biotinylated 4S.B3 (BD Pharmingen) as the detection Ab.
Lipid compounds were solubilized in 150 mM NaCl and 0.5% Tween 20 (vehicle). All substances were diluted in PBS and administered either i.v., or i.m. Unless stated otherwise, doses used per injection were 400 μg OVA (Sigma) and 100 ng of lipid compounds or vehicle.
Human iNKT‐cells were expanded as described previously 34. For lipid titration studies, hCD1d C1R cells were pulsed with lipids overnight and following washes, cocultured with human iNKT cells. The presence of IFN‐γ was detected in supernatants by ELISA 12. For DC maturation studies, immature DCs were collected on day 4 and pulsed with lipids and iNKT cells 34. DC maturation was determined by the upregulation of CD86 by flow cytometry on a FACSCalibur with CellQuest software (BD) and analyzed with FlowJo software (Tree Star). For in vivo murine APC phenotype analysis the expression of CD86 or CD40 on CD11c^+ APCs from spleen were determined after 18 h post i.v. of 1 μg lipids on a CyAn cytometer and analyzed with FlowJo software (Tree Star).
(In an ELISA, binding on a coated surface is turned into a signal by an enzyme label.)

The next series relates to iNKT hybridoma DN32.D3. Kind of series: CD11c+ splenocytes from lipid‐injected Jα18 knockout mice stimulating DN32.D3 (IL‐2 ELISA). Type of series: in vivo. As to conditions: 1 μg i.v.; for Decline in stimulation of DN32.D3 by CD11c+ cells, 64 h compared with 12 h post injection: Jα18 knockout mice, IL‐2. The protocol:
Figure 6 Enhanced bioavailability of ThrCer 6 as compared to ThrCer and α‐GalCer. (A) Mouse BMDCs were pulsed for 6 h with 100, 10, or 1 ng/mL of indicated iNKT‐cell agonists. Cells were washed and suspended in tissue culture medium in the absence of iNKT‐cell agonists for up to 24 h. Washed BMDCs were then cocultured with the murine iNKT cell hybridoma DN32.D3. Hundred percentage activation was defined for each iNKT‐cell agonist as the IL‐2 produced by DN32.D3 cocultured with BMDCs that were left with iNKT‐cell agonists throughout the pre coculture period (30 h). Diminished bioavailability is expressed as a percentage of the maximum DN32.D3 activation by each iNKT‐cell agonist. Number of replicates = 4. (B and C) Jα18 knockout mice were injected i.v. with 1 μg of ThrCer 6, α‐GalCer, or vehicle. Twelve hours or 64 h later, CD11c^+‐purified cells were cocultured with 5 × 10^4 DN32.D3 at different ratios. (B) IL‐2 in the supernatant from coculture of DN32.D3 with CD11c^+ cells isolated after 64 h was determined by ELISA. (C) IL‐2 levels of the same culture as percentage of the IL‐2 produced by DN32.D3 coincubated with CD11c^+ cells isolated 12 h after injection of lipids. […] Significance was calculated between α‐GalCer and ThrCer 6. *p < 0.05, **p < 0.01, ***p < 0.001, ****p < 0.0001; Student's t‐test.
To rule out the possibility that the results of these experiments could be modulated by the in vivo killing of CD11c^+ cells by iNKT cells, Jα18 knockout mice, lacking iNKT cells, were injected with ThrCer 6, α‐GalCer or vehicle, and then culled 12 or 64 h later. CD11c^+ cells enriched from the spleens were then coincubated with DN32.D3 for 17 h and IL‐2 production was measured in the supernatant (Fig. 6B and C).
Levels of iNKT‐cell agonists, presented by CD1d on the surface of cells, were assessed by the amount of IL‐2 secreted by iNKT hybridoma DN32.D3 coincubated with the presenting cells for 17–24 h. […] Levels of IL‐2 in the supernatant were determined by ELISA. iNKT‐cell hybridoma DN32.D3 was kindly provided by A. Bendelac 45.

Take `CCCCCCCCCCCCCCCCCCCCCCCCCC(=O)N[C@@H](CO[C@H]1CC[C@H](O)[C@H](O)[C@H]1O)[C@H](O)[C@H](O)CCCCCCCCCCCCCC` [ThrCer 6]: the “Ability to activate murine iNKT cells and mature DC in vivo” value in the series with murine iNKT cells (1 μg i.v., serum IL‐4 2 h, IFN‐γ 18 h, CD86 on CD11c+ DC, greater than ThrCer, similar to α‐GalCer) was “marked increase”. Also, in the series with murine iNKT cells (1 μg i.v.), the “DC maturation (CD40 on CD11c+ cells) in iNKT cell deficient mice” value was “do not mature DCs”. Further, the “Serum IFN‐γ secretion after intramuscular injection” value in the series with murine iNKT cells (i.m., 18 h post injection, compared with α‐GalCer) is recorded as “higher”. Moreover, in the series with murine iNKT cells (i.v., after 12 and 18 h, compared with α‐GalCer), the “Serum IFN‐γ secretion, in vivo dose titration” value was “significantly enhanced”. The “Decline in stimulation of DN32.D3 by CD11c+ cells, 64 h compared with 12 h post injection” value with iNKT hybridoma DN32.D3 was “less than 50%”. In the series with iNKT hybridoma DN32.D3 (compared with α‐GalCer‐injected mice), the “Activation of DN32.D3 by splenic CD11c+ cells 64 h after in vivo injection” value was “more potent activators of DN32.D3 cells”.
Take `CCCCCCCCCCCCCCCCCCCCCCCCCC(=O)NC(COC1CCCC(O)C(O)C1O)C(O)C(O)CCCCCCCCCCCCCC` (centres unmarked) [ThrCer 7]: in the series with murine iNKT cells (1 μg i.v.), the “DC maturation (CD40 on CD11c+ cells) in iNKT cell deficient mice” value is “do not mature DCs”.
With `CCCCCCCCCCCCCCCCCCCCCCCCCC(=O)N[C@@H](CO[C@H]1O[C@H](CO)[C@H](O)[C@H](O)[C@H]1O)[C@H](O)[C@H](O)CCCCCCCCCCCCCC` [α‐GalCer, α‐galactosylceramide, reference compound], the “Decline in stimulation of DN32.D3 by CD11c+ cells, 64 h compared with 12 h post injection” value in the series on iNKT hybridoma DN32.D3 is listed as “more than 90%”.
